Positions of bridges follow the written chain, without caps; N, C: chain ends. No end group written: not given here.

The test system of one experiment is 5T33MM-derived exosomes. Description: Exosome immunocapture (anti-CD63 SMNPs) and flow cytometry, 5T33MM-derived exosomes. Format: binding, murine. The conditions noted are these: exosomes from cell supernatant trapped on anti-CD63 SMNPs; FITC-conjugated reagent; Fig. 4. The protocol:
(§1) Exosomes were isolated from 250 μL of blood and 10 mL of cell supernatant respectively using ExoQuick solutions [System Biosciences – SBI, Palo Alto, California, US] and ExoQuick-TC™ [System Biosciences], according to the manufacturer’s protocol. Briefly, serum and cell supernatants were centrifuged at 3000×g for 15 min to remove cells and cell debris. The supernatant was transferred to a sterile vessel and the recommended volume of ExoQuick solution or ExoQuick-TC™ were added to the bio-fluids. After brief vortex, samples were stored 30 min at 4 °C and then centrifuged at 1500 x g for 30 min at room temperature. After removing the supernatant, the pellet was suspended in nuclease-free water.
(§2) Isolated exosomes from serum or cell supernatants were suspended in 1 ml of 1X PBS. Exosome aliquots (500 μl) were labeled with 50 μl of 10X Exo-Red [SBI] according to manufacturer’s instructions. The exosomes were re-isolated using the addition of 100 μl ExoQuick followed by precipitation for 30 min at +4 °C. The labeled exosome pellet was suspended in 500 μl 1X PBS and stained with CD63-coupled magnetic beads provided by SBI’s Exo-Flow IP kit [SBI] and with the FITC-conjugated peptides.

Experiment [1] relates to 5T33MM cells. The experiment is described as follows: In vitro cell binding of FITC-conjugated peptides by flow cytometry. In kind it is cell-based, murine. The conditions noted are these: 10 min on ice, Fig. 2b. On the procedure:
(§3) Cultured 5T33MM, A20 and IM9 cells as well as primary B cells from MM patient and healthy donor were washed and suspended at the density of 10^6 cells/ml in FACs Flow Buffer [BD Biosciences]. All subsequent washing and incubations were carried out in the same buffer on ice. Cells were incubated with 20 μg/ml of FITC-conjugated peptides for 10 min on ice, then washed twice, and analyzed by flow cytometry [FACSCalibur, BD Biosciences]. For peptide co-localization with the BCR complex, 5T33MM cells (10^6 cells/ml) were stained with FITC-conjugated peptides [10 μg/ml) and goat anti-mouse IgG-Alexa fluor 568 [Thermo Fisher]. After extensive washing, cells were mounted under cover slip, and visualized by confocal microscopy [Leica TC-SP2].

Experiment [2] concerns 5T33MM cells. The experiment is described as follows: Confocal microscopy of FITC-conjugated peptide co-localization with the BCR complex. Format: cell-based, murine. Particulars: FITC-conjugated p5 peptide, non-permeabilized cells, anti-mouse IgG co-staining; Fig. 2c. On the procedure: as §3
Another experiment relates to mIg-5T33MM. The experiment is described as follows: ELISA binding of biotin-conjugated Id-peptides to 5T33MM Ig (Scatchard plot analysis). Details: species or system murine. The conditions noted are these: biotinylated-p5 peptide at different concentrations; Fig. 2a. On the procedure:
(§4) Single strand DNA (ssDNA) was extracted from the selected phage clones by phenol/chlorophorm purification followed by ethanol precipitation. DNA fragment codifying the peptide ligand was amplified by PCR and sequenced to get the primary structure of amino acid sequence for the peptide synthesis. Synthesized peptides were purchased from Caslo Laboratory ApS [Caslo, Kongens Lyngby, DE]. The specific binding of peptides to the 5T33MM sIgG was analyzed by ELISA, as follows. Streptavidin coated 96 well plates were washed extensively and supplemented with biotin-conjugated peptides by 1 h-incubation at 37 °C; then, after washing and blocking with blocking solution (1X PBS, 0.05% Tween-20, 5% milk), aliquots of 5T33MM sIgG (1 μg/ml in blocking buffer) were added overnight at 4 °C. Wells were extensively washed and coated with the anti-mouse IgG (Fc-specific) alkaline phosphatase-conjugated [Sigma Aldrich] for 1 h at 37 °C, incubated with the alkaline phosphatase substrate [Sigma Aldrich], and analyzed by an ELISA reader at 405 nm [Labsystems multiscan MS].
(§5) The random peptide insert was flanked by a pair of cysteines resulting in cyclized peptide exposed on M13 coat protein. After three rounds of affinity selection, single phage clones were purified and tested by enzyme-linked immunosorbent assay (ELISA) for binding to the 5T33MM Igs or control Igs, as previously described. […]

The subject of another experiment is polyclonal mouse Igs. The experiment is described as follows: ELISA binding of biotinylated peptide to control polyclonal mouse Igs. The conditions noted are these: biotinylated-p5 peptide, Fig. 2a. The protocol:
as §4, §5

Another experiment has as its system A20 secreted IgG. The experiment is described as follows: ELISA binding of biotinylated peptide to control A20 secreted IgG. The conditions noted are these: biotinylated-p5 peptide; control Ig; Fig. 2a. Set-up: species or system murine. The protocol: as §4, §5
The subject of a further experiment is A20-derived exosomes. The experiment is described as follows: Exosome immunocapture (anti-CD63 SMNPs) and flow cytometry, A20-derived exosomes. In kind it is binding, murine. Particulars: exosomes trapped on anti-CD63 SMNPs; FITC-conjugated p5 peptide; Fig. 4. On the procedure:
as §1, §2

The test system of another experiment is IM9-derived exosomes. The experiment is described as follows: Exosome immunocapture (anti-CD63 SMNPs) and flow cytometry, IM9-derived exosomes. Particulars: exosomes trapped on anti-CD63 SMNPs; FITC-conjugated p5 peptide; Fig. 4. In kind it is binding, human. On the procedure: as §1, §2

Consider “CGGNGPGLC [pCNT, irrelevant peptide (…) included as a negative control, FITC-conjugated, reference compound]”, for which the “detection of 5T33MM-derived exosomes by flow cytometry” value in the experiment with 5T33MM-derived exosomes is “undetected”. Moreover, in the experiment with 5T33MM cells [1], the “recognition of 5T33MM target cells by flow cytometry” value is recorded as “did not”.
“CIGNSNTLC (disulfide 1-9 (inferred)) [p5, used biotinylated or FITC-conjugated]”: in the experiment on 5T33MM cells [2], the “localization on 5T33MM cells by confocal microscopy” value is “bound to the 5T33MM cell surface and also localized inside the cells”. Besides, in the experiment on mIg-5T33MM, the “reactivity to the cognate antibody (5T33MM-Igs) by ELISA” value is given as “concentration-dependent specific reactivity”. Moreover, the “detection of 5T33MM-derived exosomes by flow cytometry” value with 5T33MM-derived exosomes was “equally detected”. Also, the “reactivity against polyclonal mouse Igs by ELISA” value with polyclonal mouse Igs is reported as “did not react”. Also, in the experiment with A20 secreted IgG, the “reactivity against A20 secreted IgG by ELISA” value is “did not react”. Also, the “detection of exosomes released from murine A20 B-lymphoma cells” value in the experiment with A20-derived exosomes was “did not detect”. Further, in the experiment on 5T33MM cells [1], the “recognition of 5T33MM target cells by flow cytometry” value was “recognized 5T33MM target cells in a dose-dependent manner”. Moreover, the “detection of exosomes released from human IM9 multiple myeloma cells” value in the experiment on IM9-derived exosomes is “did not detect”.

These data come from article PMC5640902, “Monitoring multiple myeloma by idiotype-specific peptide binders of tumor-derived exosomes” (Molecular Cancer, 2017).
